Tests used:
[1] = biological target: T1, human GLP-1 receptor (Homo sapiens, UniProt P43220); experiment: cAMP production (HTRF) in CHO-K1 cells expressing GLP-1 receptor; type: cell-based
T1 construct: expressed in transfected cells; host or cells: CHO-K1 cells

[2] = biological target: T2, human GLP-2 receptor (Homo sapiens, UniProt O95838); experiment: cAMP production (HTRF) in CHO-K1 cells expressing GLP-2 receptor; type: cell-based; details: for Emax: CHO-K1, control peptide GLP-2 (1-34), read-out: Max efficacy in % of control peptide; for Emax / EC50: cAMP; for EC50: CHO-K1 human GLP-2 receptor
T2 construct: expressed in transfected cells; host or cells: CHO-K1 cells
T2 sequence (O95838 1-553): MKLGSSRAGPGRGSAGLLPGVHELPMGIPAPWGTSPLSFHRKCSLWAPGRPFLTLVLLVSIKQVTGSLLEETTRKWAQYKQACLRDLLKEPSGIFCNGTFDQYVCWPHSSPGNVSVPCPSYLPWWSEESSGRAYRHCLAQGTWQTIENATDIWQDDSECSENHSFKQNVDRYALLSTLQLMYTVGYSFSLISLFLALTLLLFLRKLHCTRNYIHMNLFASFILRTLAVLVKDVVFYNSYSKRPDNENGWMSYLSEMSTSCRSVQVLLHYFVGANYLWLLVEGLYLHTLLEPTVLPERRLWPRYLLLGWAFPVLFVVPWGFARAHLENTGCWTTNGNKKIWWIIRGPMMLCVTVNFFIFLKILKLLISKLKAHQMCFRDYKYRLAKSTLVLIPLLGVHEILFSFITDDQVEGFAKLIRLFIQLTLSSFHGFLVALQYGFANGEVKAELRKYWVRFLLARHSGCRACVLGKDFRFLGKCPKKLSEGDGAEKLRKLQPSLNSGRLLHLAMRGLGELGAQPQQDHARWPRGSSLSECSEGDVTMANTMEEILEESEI
Experimental: CHO-K1 cells expressing the human GLP-2 receptor grown in media without antibiotic were detached by gentle flushing with PBS-EDTA (5 mM EDTA), recovered by centrifugation and resuspended in assay buffer (KRH: 5 mM KCl, 1.25 mM MgSO4, 124 mM NaCl, 25 mM HEPES, 13.3 mM Glucose, 1.25 mM KH2PO4, 1.45 mM CaCl2), 0.5 g/l BSA).
12 μl of cells were mixed with 12 μl of the test compound (solubilized in PBS/0.5% BSA and finally diluted from a stock solution of 1 mM) at increasing concentrations in 96 wells plates and then incubated 30 min at room temperature. cAMP production was determined after addition of a lysis buffer and 1 hour incubation, by use of competitive immunoassay using cryptate-labeled anti-cAMP and d2-labeled cAMP (HTRF kit from CisBio) with Delta F percentage values calculated according to the manufacturer specification. Dose response curves were performed in parallel with test compounds, and reference compounds.
The HTRF technology is a titration assay based on a competition between labeled cAMP (exogenous) and cAMP produced by the cell after activation of the […]. The dynamic range of the assay was 3-4 fold meaning that the linear range (which enables conversion from raw data to nM of cAMP) is within that range. […] All experiments were conducted in the presence of the non-selective phosphodiesterase inhibitor IBMX (1 mM in final concentration).
The test compounds were tested in a concentration range from […] to 10^−7M
Data is presented as mean values.

[3] = biological target: T3, FPR2 receptor (Homo sapiens, UniProt P25090); details: cited from earlier work
T3 sequence (P25090 1-351): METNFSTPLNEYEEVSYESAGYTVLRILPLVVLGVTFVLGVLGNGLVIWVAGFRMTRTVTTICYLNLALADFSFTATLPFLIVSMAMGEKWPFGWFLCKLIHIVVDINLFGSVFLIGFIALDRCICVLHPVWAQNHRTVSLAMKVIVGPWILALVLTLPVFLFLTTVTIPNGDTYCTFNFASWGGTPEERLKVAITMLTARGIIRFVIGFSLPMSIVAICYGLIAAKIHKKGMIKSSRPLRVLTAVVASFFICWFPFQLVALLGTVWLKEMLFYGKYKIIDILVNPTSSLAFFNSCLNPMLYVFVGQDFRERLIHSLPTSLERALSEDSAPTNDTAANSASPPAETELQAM

T1 sequence (P43220 24-463): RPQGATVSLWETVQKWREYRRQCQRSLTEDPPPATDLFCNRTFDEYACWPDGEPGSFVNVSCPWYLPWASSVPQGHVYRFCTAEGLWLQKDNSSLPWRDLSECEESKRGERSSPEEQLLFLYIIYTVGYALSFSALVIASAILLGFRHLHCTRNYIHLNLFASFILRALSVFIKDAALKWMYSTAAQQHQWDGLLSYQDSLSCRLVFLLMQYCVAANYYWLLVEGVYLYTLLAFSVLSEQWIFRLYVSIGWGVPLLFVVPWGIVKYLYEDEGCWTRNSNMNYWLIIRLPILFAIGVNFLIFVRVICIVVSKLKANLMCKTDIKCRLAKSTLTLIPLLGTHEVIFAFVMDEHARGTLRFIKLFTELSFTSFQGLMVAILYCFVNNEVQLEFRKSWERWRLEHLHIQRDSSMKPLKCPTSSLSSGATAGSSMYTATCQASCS

Row | Emax [2] [%] | EC50 [2] [nM] | Compound | also measured
1 | – | – | CC[C@H](C)[C@H](NC(=O)[C@H](Cc1ccccc1)NC(=O)[C@H](CCC(=O)O)NC(=O)[C@H](CCCCN)NC(=O)[C@H](C)NC(=O)[C@H](C)NC(=O)[C@H](CCC(N)=O)NC(=O)CNC(=O)[C@H](CCC(=O)O)NC(=O)[C@H](CC(C)C)NC(=O)[C@H](Cc1ccc(O)cc1)NC(=O)[C@H](CO)NC(=O)[C@H](CO)NC(=O)[C@@H](NC(=O)[C@H](CC(=O)O)NC(=O)[C@H](CO)NC(=O)[C@@H](NC(=O)[C@H](Cc1ccccc1)NC(=O)[C@@H](NC(=O)CNC(=O)[C@H](CCC(=O)O)NC(=O)CNC(=O)[C@H](Cc1c[nH]cn1)NC(C)=O)[C@@H](C)O)[C@@H](C)O)C(C)C)C(=O)N[C@@H](C)C(=O)N[C@@H](Cc1c[nH]c2ccccc12)C(=O)N[C@@H](CC(C)C)C(=O)N[C@H](C(=O)N[C@@H](CCCCN)C(=O)NCC(=O)N[C@@H](CCCNC(=N)N)C(=O)NCC(=O)N[C@@H](CCCCNC(=O)[C@H](CCCCN)NC(=O)[C@H](CCCCN)NC(C)=O)C(N)=O)C(C)C [Analogue 2] | EC50 [1]: 0.04 nM; Emax ([1]; CHO-K1, read-out: Max efficacy in % of control peptide): 102%
2 | 101 | 3.4 | CC[C@H](C)[C@H](NC(=O)[C@H](Cc1ccccc1)NC(=O)[C@H](CC(=O)O)NC(=O)[C@H](CCCNC(=N)N)NC(=O)[C@H](C)NC(=O)[C@H](C)NC(=O)[C@H](CC(C)C)NC(=O)[C@H](CC(N)=O)NC(=O)[C@H](CC(=O)O)NC(=O)[C@H](CC(C)C)NC(=O)[C@@H](NC(=O)[C@@H](NC(=O)[C@H](CC(N)=O)NC(=O)[C@H](CCSC)NC(=O)[C@H](CCC(=O)O)NC(=O)[C@H](CC(=O)O)NC(=O)[C@H](CO)NC(=O)[C@H](Cc1ccccc1)NC(=O)[C@H](CO)NC(=O)CNC(=O)[C@H](CC(=O)O)NC(=O)[C@H](C)NC(=O)[C@H](Cc1c[nH]cn1)NC(C)=O)[C@@H](C)O)[C@@H](C)CC)C(=O)N[C@@H](CC(N)=O)C(=O)N[C@@H](Cc1c[nH]c2ccccc12)C(=O)N[C@@H](CC(C)C)C(=O)N[C@H](C(=O)N[C@@H](CCC(N)=O)C(=O)N[C@H](C(=O)N[C@@H](CCCCN)C(=O)N[C@H](C(=O)N[C@H](C(=O)N[C@@H](CC(=O)O)C(=O)N[C@@H](CCCCNC(=O)[C@H](CCCCN)NC(=O)[C@H](CCCCN)NC(C)=O)C(N)=O)[C@@H](C)O)[C@@H](C)CC)[C@@H](C)O)[C@@H](C)CC [Analogue 3] | –
3 | 102 | 5.9 | CC[C@H](C)[C@H](NC(=O)[C@H](Cc1ccccc1)NC(=O)[C@H](CC(=O)O)NC(=O)[C@H](CCCNC(=N)N)NC(=O)[C@H](C)NC(=O)[C@H](C)NC(=O)[C@H](CC(C)C)NC(=O)[C@H](CC(N)=O)NC(=O)[C@H](CC(=O)O)NC(=O)[C@H](CC(C)C)NC(=O)[C@@H](NC(=O)[C@@H](NC(=O)[C@H](CC(N)=O)NC(=O)[C@H](CCSC)NC(=O)[C@H](CCC(=O)O)NC(=O)[C@H](CC(=O)O)NC(=O)[C@H](CO)NC(=O)[C@H](Cc1ccccc1)NC(=O)[C@H](CO)NC(=O)CNC(=O)[C@H](CC(=O)O)NC(=O)CNC(=O)[C@H](Cc1c[nH]cn1)NC(C)=O)[C@@H](C)O)[C@@H](C)CC)C(=O)N[C@@H](CC(N)=O)C(=O)N[C@@H](Cc1c[nH]c2ccccc12)C(=O)N[C@@H](CC(C)C)C(=O)N[C@H](C(=O)N[C@@H](CCC(N)=O)C(=O)N[C@H](C(=O)N[C@@H](CCCCN)C(=O)N[C@H](C(=O)N[C@H](C(=O)N[C@@H](CC(=O)O)C(=O)N[C@@H](CCCCNC(=O)[C@H](CCCCN)NC(=O)[C@H](CCCCN)NC(C)=O)C(N)=O)[C@@H](C)O)[C@@H](C)CC)[C@@H](C)O)[C@@H](C)CC [Analogue 4] | –
4 | 95.1 | 8.9 | CC[C@H](C)[C@H](NC(=O)[C@H](Cc1ccccc1)NC(=O)[C@H](CC(=O)O)NC(=O)[C@H](CCCNC(=N)N)NC(=O)[C@H](C)NC(=O)[C@H](C)NC(=O)[C@H](CC(C)C)NC(=O)[C@H](CC(N)=O)NC(=O)[C@H](CC(=O)O)NC(=O)[C@H](CC(C)C)NC(=O)[C@@H](NC(=O)[C@@H](NC(=O)[C@H](CC(N)=O)NC(=O)[C@H](CCSC)NC(=O)[C@H](CCC(=O)O)NC(=O)[C@H](CC(=O)O)NC(=O)[C@H](CO)NC(=O)[C@H](Cc1ccccc1)NC(=O)[C@H](CO)NC(=O)CNC(=O)[C@H](CC(=O)O)NC(=O)[C@@H](C)NC(=O)[C@H](Cc1c[nH]cn1)NC(C)=O)[C@@H](C)O)[C@@H](C)CC)C(=O)N[C@@H](CC(N)=O)C(=O)N[C@@H](Cc1c[nH]c2ccccc12)C(=O)N[C@@H](CC(C)C)C(=O)N[C@H](C(=O)N[C@@H](CCC(N)=O)C(=O)N[C@H](C(=O)N[C@@H](CCCCN)C(=O)N[C@H](C(=O)N[C@H](C(=O)N[C@@H](CC(=O)O)C(=O)N[C@@H](CCCCNC(=O)[C@H](CCCCN)NC(=O)[C@H](CCCCN)NC(C)=O)C(N)=O)[C@@H](C)O)[C@@H](C)CC)[C@@H](C)O)[C@@H](C)CC [Analogue 5] | –
5 | – | – | CC[C@H](C)[C@H](NC(=O)[C@H](Cc1ccccc1)NC(=O)[C@H](CC(=O)O)NC(=O)[C@H](CCCNC(=N)N)NC(=O)[C@H](C)NC(=O)[C@H](C)NC(=O)[C@H](CC(C)C)NC(=O)[C@H](CC(N)=O)NC(=O)[C@H](CC(=O)O)NC(=O)[C@H](CC(C)C)NC(=O)[C@@H](NC(=O)[C@@H](NC(=O)[C@H](CC(N)=O)NC(=O)[C@H](CCSC)NC(=O)[C@H](CCC(=O)O)NC(=O)[C@H](CC(=O)O)NC(=O)[C@H](CO)NC(=O)[C@H](Cc1ccccc1)NC(=O)[C@H](CO)NC(=O)CNC(=O)[C@H](CC(=O)O)NC(=O)[C@H](C)NC(=O)[C@@H](N)Cc1c[nH]cn1)[C@@H](C)O)[C@@H](C)CC)C(=O)N[C@@H](CC(N)=O)C(=O)N[C@@H](Cc1c[nH]c2ccccc12)C(=O)N[C@@H](CC(C)C)C(=O)N[C@H](C(=O)N[C@@H](CCC(N)=O)C(=O)N[C@H](C(=O)N[C@@H](CCCCN)C(=O)N[C@H](C(=O)N[C@H](C(=O)N[C@@H](CC(=O)O)C(=O)N[C@@H](CCCNC(=N)N)C(=O)O)[C@@H](C)O)[C@@H](C)CC)[C@@H](C)O)[C@@H](C)CC [GLP-2 (1-34), reference compound] | Hill Slope ([2]; cAMP dose response curve): 0.78
6 | – | – | Ac-Ala-Met-Val-Ser-Glu-Phe-Leu-Lys-Gln-Ala-Trp-NH2 (Ac-AMVSEFLKQAW-NH2; listed as Homo sapiens) [Control peptide 2] | agonism at the FPR2 receptor as described in the literature [3]: described as agonist to the FPR2 receptor- none of them as significantly potent
7 | – | – | Ac-Ala-Met-Val-Ser-Glu-Phe-Leu-Lys-Gln-Ala-Trp-Phe-Ile-Glu-Asn-Glu-Glu-Gln-Glu-Tyr-Val-Gln-Thr-Val-Lys-OH (Ac-AMVSEFLKQAWFIENEEQEYVQTVK-OH; listed as Homo sapiens) [Control peptide 1] | agonism at the FPR2 receptor as described in the literature [3]: described as agonist to the FPR2 receptor- none of them as significantly potent

Source: US11141455B2, “Peptide analogues with branched amino acid probe(s)” (priority 2014, dated 2021)
